Active and inactive are the calls of the source. The rule behind the calls is not given here.
What was measured:
[1] = Neuroprotection against H2O2-induced inflammation in […] cells assessed as reduction in ROS production by measuring mean fluorescence intensity at 10 uM after 18 hrs by DCFH-DA staining-based flow cytometric analysis (reference value: 20004); format: functional
[2] = Neuroprotection against LPS-induced inflammation in human BV2 cells assessed as reduction in ROS production by measuring mean fluorescence intensity at 2.5 uM after 18 hrs by DCFH-DA staining-based flow cytometric analysis (reference value: 56792); format: functional
[3] = Neuroprotection against H2O2-induced inflammation in human BV2 cells assessed as reduction in ROS production by measuring mean fluorescence intensity at 2.5 uM after 18 hrs by DCFH-DA staining-based flow cytometric analysis (reference value: 20004); format: functional
[4] = system: PC-12; assay: Neuroprotection against H2O2-induced oxidative damage in rat PC12 cells assessed as increase in mitochondrial membrane potential at 2.5 to 10 uM after 24 hrs in presence of H2O2 by JC-1 staining based flow cytometric analysis; format: functional, cell-based
[5] = system: PC-12; assay: Neuroprotection against H2O2-induced oxidative damage in rat PC12 cells assessed as intracellular Ca2+ level by measuring mean fluorescence intensity at 2.5 uM after 24 hrs in presence of H2O2 by Fluo-3/AM staining based flow cytometric analysis (reference value: 51697); format: functional
[6] = Neuroprotection against LPS-induced inflammation in human BV2 cells assessed as reduction in ROS production by measuring mean fluorescence intensity at 10 uM after 18 hrs by DCFH-DA staining-based flow cytometric analysis (reference value: 56792); format: functional
[7] = system: PC-12; assay: Neuroprotection against H2O2-induced oxidative damage in rat PC12 cells assessed as early apoptotic cells at 5 uM after 24 hrs in presence of H2O2 by annexin V-FITC/propidium iodide staining based flow cytometric analysis (reference value: 2.1%); format: functional
[8] = system: PC-12; assay: Neuroprotection against H2O2-induced oxidative damage in rat PC12 cells assessed as late apoptotic cells at 10 uM after 24 hrs in presence of H2O2 by annexin V-FITC/propidium iodide staining based flow cytometric analysis (reference value: 29.8%); format: functional
[9] = system: PC-12; assay: Neuroprotection against H2O2-induced oxidative damage in rat PC12 cells assessed as necrotic cells at 10 uM after 24 hrs in presence of H2O2 by annexin V-FITC/propidium iodide staining based flow cytometric analysis (reference value: 4.5%); format: functional
[10] = system: PC-12; assay: Neuroprotection against H2O2-induced oxidative damage in rat PC12 cells assessed as intracellular Ca2+ level by measuring mean fluorescence intensity at 5 uM after 24 hrs in presence of H2O2 by Fluo-3/AM staining based flow cytometric analysis (reference value: 43156); format: functional
[11] = system: PC-12; assay: Neuroprotection against H2O2-induced oxidative damage in rat PC12 cells assessed as early apoptotic cells at 2.5 uM after 24 hrs in presence of H2O2 by annexin V-FITC/propidium iodide staining based flow cytometric analysis (reference value: 2.1%); format: functional
[12] = system: PC-12; assay: Neuroprotection against H2O2-induced oxidative damage in rat PC12 cells assessed as viable cells at 2.5 uM after 24 hrs in presence of H2O2 by annexin V-FITC/propidium iodide staining based flow cytometric analysis (reference value: 63.6%); format: functional; conditions: PC-12, 24 h, read-out: Activity
[13] = system: PC-12; assay: Neuroprotection against H2O2-induced oxidative damage in rat PC12 cells assessed as intracellular Ca2+ level by measuring mean fluorescence intensity at 2.5 uM after 24 hrs in presence of H2O2 by Fluo-3/AM staining based flow cytometric analysis (reference value: 43156); format: functional
[14] = system: PC-12; assay: Neuroprotection against H2O2-induced oxidative damage in rat PC12 cells assessed as late apoptotic cells at 2.5 uM after 24 hrs in presence of H2O2 by annexin V-FITC/propidium iodide staining based flow cytometric analysis (reference value: 29.8%); format: functional
[15] = Neuroprotection against LPS-induced inflammation in […] cells assessed as reduction in ROS production by measuring mean fluorescence intensity at 10 uM after 18 hrs by DCFH-DA staining-based flow cytometric analysis (reference value: 70385); format: functional

SMILES | Flu intensity [1] | Flu intensity [2] | Flu intensity [3] | Activity [4] | Flu intensity [5] | Flu intensity [6] | Activity [7] [%] | Activity [8] [%] | Activity [9] [%] | Flu intensity [10] | Activity [11] [%] | viability at 2.5 µM [12] [%] | Flu intensity [13] | Activity [14] [%] | Flu intensity [15]
CC(C)=CCc1c(O)cc(/C=C/c2ccc3c(c2)[C@H](c2cc(O)c(CC=C(C)C)c(O)c2)[C@@H](c2ccc(O)cc2)O3)cc1O | 8220 | 31340 | 14563 | Active | 40059 | 24076 |  |  |  |  |  |  |  |  | 
CC(C)=CCc1c(O)cc(/C=C/c2ccc3c(c2)[C@H](c2cc(O)c4c(c2)OC(C)(C)CC4)[C@@H](c2ccc(O)cc2)O3)cc1O |  |  |  |  |  |  | 1.9 | 4.8 | 0.6 | 37986 | 2.1 | 68 | 40869 | 25.1 | 43811

Reference: ChEMBL document CHEMBL4330083, “Synthesis and evaluation of isoprenylation-resveratrol dimer derivatives against Alzheimer's disease” (Eur J Med Chem, 2019)
